# Experimental data reported in the supplement of paper PMC10307832.
# Columns and labels:
# Experiment in all cases: relative viability (nuclei count vs DMSO), 5 days (fraction); higher = more cells survive
# JQ1 = compound: Cc1sc2c(c1C)C(c1ccc(Cl)cc1)=N[C@@H](CC(=O)OC(C)(C)C)c1nnc(C)n1-2 [JQ1]
# Method in brief: (§1)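 Viability here means nuclei in treated wells divided by nuclei in vehicle wells, reported as the median across plates. Only plates with control CV below 25% and at least one doubling passed. Lung cancer cell lines in 1536-well plates were exposed to five √10-spaced library-drug doses for 5 days and counted from 4× Hoechst images in MetaXpress.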
# Docetaxel = compound: CC(=O)O[C@@]12CO[C@@H]1C[C@H](O)[C@@]1(C)C(=O)[C@H](O)C3=C(C)[C@@H](OC(=O)[C@H](O)[C@@H](NC(=O)OC(C)(C)C)c4ccccc4)C[C@@](O)([C@@H](OC(=O)c4ccccc4)[C@H]21)C3(C)C [Docetaxel]
# Method in brief: as §1
# Cytarabine = compound: Nc1ccn([C@@H]2O[C@H](CO)[C@@H](O)[C@@H]2O)c(=O)n1 [Cytarabine]
# Method in brief: as §1
# CPI-613 = compound: O=C(O)CCCCC(CCSCc1ccccc1)SCc1ccccc1 [CPI-613]
# Method in brief: as §1
# [1] = compound: Cc1cnc(-c2cnc(NCCNc3ccc(C#N)cn3)nc2-c2ccc(Cl)cc2Cl)[nH]1
# Method in brief: as §1
# Pimozide = compound: O=c1[nH]c2ccccc2n1C1CCN(CCCC(c2ccc(F)cc2)c2ccc(F)cc2)CC1 [Pimozide]
# Method in brief: as §1
# Tivozanib = compound: COc1cc2nccc(Oc3ccc(NC(=O)Nc4cc(C)on4)c(Cl)c3)c2cc1OC [Tivozanib]
# Method in brief: as §1
Cell Line,relative viability (JQ1; 0.04 µM),relative viability (JQ1; 0.1265 µM),relative viability (JQ1; 0.4 µM),relative viability (JQ1; 1.265 µM),relative viability (JQ1; 4 µM),relative viability (Docetaxel; 0.0002 µM),relative viability (Docetaxel; 0.000632 µM),relative viability (Docetaxel; 0.002 µM),relative viability (Docetaxel; 0.006325 µM),relative viability (Docetaxel; 0.02 µM),relative viability (Cytarabine; 0.005 µM),relative viability (Cytarabine; 0.01581 µM),relative viability (Cytarabine; 0.05 µM),relative viability (Cytarabine; 0.1581 µM),relative viability (Cytarabine; 0.5 µM),relative viability (CPI-613; 5 µM),relative viability (CPI-613; 15.81 µM),relative viability (CPI-613; 50 µM),relative viability (CPI-613; 158.11 µM),relative viability (CPI-613; 500 µM),relative viability ([1]; 0.08 µM),relative viability ([1]; 0.253 µM),relative viability ([1]; 0.8 µM),relative viability ([1]; 2.53 µM),relative viability (Pimozide; 0.08 µM),relative viability (Pimozide; 0.253 µM),relative viability (Pimozide; 0.8 µM),relative viability (Pimozide; 2.53 µM),relative viability (Pimozide; 8 µM),relative viability (Tivozanib; 0.005 µM),relative viability (Tivozanib; 0.01581 µM),relative viability (Tivozanib; 0.05 µM),relative viability (Tivozanib; 0.1581 µM),relative viability (Tivozanib; 0.5 µM)
NCI-H647,0.894,0.569,0.527,0.292,0.121,0.739,0.43,0.209,0.148,0.0799,0.63,0.323,0.265,0.111,0.0762,0.913,0.778,0.871,0.499,0.239,1.06,0.862,0.931,0.934,0.91,0.981,0.848,0.857,0.806,0.843,0.98,0.981,0.844,0.826
NCI-H650,0.946,0.628,0.78,0.365,0.298,0.871,0.456,0.343,0.257,0.187,0.893,0.581,0.328,0.234,0.205,0.937,0.803,1.05,0.621,0.716,1.03,1.01,0.797,0.783,0.969,0.914,0.839,0.997,1.12,0.86,0.979,0.935,0.607,0.706
NCI-H661,1.03,0.962,0.952,0.879,0.769,0.93,0.986,1,0.541,0.459,1.04,0.93,0.902,0.715,0.581,0.963,0.914,0.956,0.832,0.233,0.979,0.973,0.975,0.898,0.99,1.01,0.925,0.897,0.924,0.954,0.975,0.993,0.992,1.01
NCI-H727,0.923,0.988,0.413,0.465,0.409,0.772,0.892,0.726,0.548,0.413,0.785,0.766,0.788,0.402,0.382,0.831,0.825,0.916,0.654,0.309,0.952,0.864,0.943,0.86,0.849,0.864,0.998,0.879,0.93,0.8,0.85,1.01,0.702,0.917
